Experimental data: ChEMBL document CHEMBL5126527, “Emerging targeted protein degradation tools for innovative drug discovery: From classical PROTACs to the novel and beyond” (Eur J Med Chem, 2022)

Experiments:
[1] = biological target: Protein cereblon/Tyrosine-protein kinase BTK (Homo sapiens, UniProt Q06187+Q96SW2); assay: Protac activity at CRBN/BTK in human MOLM-14 cells assessed as induction of BTK degradation incubated for 24 hrs by Western blot analysis; type: cell-based
MOLM-14 = assay: Cytotoxicity against human MOLM-14 cells assessed as inhibition of cell growth incubated for 72 hrs by alamar blue assay; type: functional, cell-based; details: MOLM-14, 72 h
A549 = assay: Antiproliferative activity against human A549 cells assessed as cell growth inhibition measured after 72 hrs by CCK-8 assay; type: functional, cell-based; details: A549, 72 h
[2] = biological target: E3 ubiquitin-protein ligase Mdm2 (Homo sapiens, UniProt Q00987); assay: Binding affinity to human MDM2 assessed as inhibition constant by competitive binding based fluorescence polarization analysis
Chain of E3 ubiquitin-protein ligase Mdm2 (Q00987 whole entry): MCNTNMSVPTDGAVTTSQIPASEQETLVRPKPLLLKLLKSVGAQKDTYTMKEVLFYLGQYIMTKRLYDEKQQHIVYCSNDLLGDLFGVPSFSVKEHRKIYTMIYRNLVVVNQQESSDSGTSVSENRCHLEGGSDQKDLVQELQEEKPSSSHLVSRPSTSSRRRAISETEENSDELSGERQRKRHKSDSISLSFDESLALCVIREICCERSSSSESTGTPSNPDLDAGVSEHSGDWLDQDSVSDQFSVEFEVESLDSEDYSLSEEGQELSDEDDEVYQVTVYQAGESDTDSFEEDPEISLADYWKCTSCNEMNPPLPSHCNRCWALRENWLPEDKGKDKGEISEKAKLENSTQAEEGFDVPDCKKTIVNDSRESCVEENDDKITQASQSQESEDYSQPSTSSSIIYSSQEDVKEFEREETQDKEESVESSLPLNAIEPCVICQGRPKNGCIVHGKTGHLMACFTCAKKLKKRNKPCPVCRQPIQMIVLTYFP

Chain of Protein cereblon/Tyrosine-protein kinase BTK (Q06187 whole entry): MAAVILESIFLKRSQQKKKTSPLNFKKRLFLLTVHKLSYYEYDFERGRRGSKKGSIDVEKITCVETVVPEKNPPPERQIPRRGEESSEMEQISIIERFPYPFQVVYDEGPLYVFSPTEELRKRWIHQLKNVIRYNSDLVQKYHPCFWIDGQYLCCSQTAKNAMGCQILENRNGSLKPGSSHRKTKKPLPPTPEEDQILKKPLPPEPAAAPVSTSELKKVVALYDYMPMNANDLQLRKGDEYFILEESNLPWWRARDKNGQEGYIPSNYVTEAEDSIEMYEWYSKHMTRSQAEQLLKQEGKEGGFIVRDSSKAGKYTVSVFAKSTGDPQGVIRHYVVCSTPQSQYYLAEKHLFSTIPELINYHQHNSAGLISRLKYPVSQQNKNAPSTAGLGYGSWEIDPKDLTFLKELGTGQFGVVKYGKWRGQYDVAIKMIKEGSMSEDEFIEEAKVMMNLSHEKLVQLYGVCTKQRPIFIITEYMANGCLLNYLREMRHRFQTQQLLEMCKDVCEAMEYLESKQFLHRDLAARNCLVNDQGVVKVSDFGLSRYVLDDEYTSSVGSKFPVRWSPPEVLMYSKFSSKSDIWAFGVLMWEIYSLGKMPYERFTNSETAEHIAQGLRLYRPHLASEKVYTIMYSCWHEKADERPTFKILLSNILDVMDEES
Chain of Protein cereblon/Tyrosine-protein kinase BTK (Q96SW2 whole entry): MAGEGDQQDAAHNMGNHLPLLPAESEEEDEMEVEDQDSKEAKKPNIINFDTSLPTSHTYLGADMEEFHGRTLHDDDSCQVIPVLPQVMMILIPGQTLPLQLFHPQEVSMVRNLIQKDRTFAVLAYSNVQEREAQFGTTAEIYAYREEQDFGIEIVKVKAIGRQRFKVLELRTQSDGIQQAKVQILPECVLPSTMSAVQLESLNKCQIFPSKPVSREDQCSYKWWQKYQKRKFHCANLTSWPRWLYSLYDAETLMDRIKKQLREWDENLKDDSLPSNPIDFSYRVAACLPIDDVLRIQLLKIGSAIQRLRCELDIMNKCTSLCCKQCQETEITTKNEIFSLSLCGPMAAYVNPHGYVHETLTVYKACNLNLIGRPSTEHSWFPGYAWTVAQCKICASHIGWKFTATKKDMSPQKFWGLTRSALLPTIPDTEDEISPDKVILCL

| SMILES | EC50 [1] | IC50 (MOLM-14) | IC50 (A549) | Ki [2] |
| --- | --- | --- | --- | --- |
| CN(CCCNC(=O)CNc1cccc2c1C(=O)N(C1CCC(=O)NC1=O)C2=O)C(C)(C)C=C(C#N)C(=O)N1CCC[C@@H](n2nc(-c3ccc(Oc4ccccc4)cc3)c3c(N)ncnc32)C1 (some centres undefined) | 6.6 nM | 300 nM | – | – |
| CCOc1cc(C(C)(C)C)ccc1C1=NC(c2ccc(Cl)cc2)C(c2ccc(Cl)cc2)N1C(=O)N1CCN(CC(=O)NCCOCCOCCOCCNC(=O)CN2CCN(C(=O)N3C(c4ccc(C(C)(C)C)cc4OCC)=NC(c4ccc(Cl)cc4)C3c3ccc(Cl)cc3)CC2=O)C(=O)C1 (centres undefined) | – | – | 1000 nM | 100 nM |
